Reference: PubChem BioAssay AID2060504 (Molecular Pharmacology Branch, DTP, NCI, 2025)

System: 636577-100-R-J1-PDC complex spheroid viability
Assay: Anticancer human tumor 636577-100-R-J1-PDC patient-derived endometrial adenocarcinoma cell line growth inhibition [GQUAD]
Conditions: for IC50: curve of first compound; for viability, T/C: stronger effect = lower value; active = viability on the fitted dose curve at most 10% of control; inactive = the rest
Summary of the method: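 Multi-cell-type spheroids of tumor cells with HUVEC and mesenchymal stem cells, treated with drug combinations. Concentrations descend in half-log steps from near clinical Cmax, or from 10 microM where Cmax is unknown; viability read-out.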

[1] = second compound 0.0316 µM, first compound 0.0316 µM
[2] = second compound 0.0316 µM, first compound 0.1 µM
[3] = second compound 0.0316 µM, first compound 0.316 µM
[4] = second compound 0.0316 µM, first compound 1 µM
[5] = second compound 0.0316 µM, first compound 3.16 µM
[6] = second compound 0.0316 µM, first compound 10 µM
[7] = second compound 0.1 µM, first compound 0.0316 µM
[8] = second compound 0.1 µM, first compound 0.1 µM
[9] = second compound 0.1 µM, first compound 0.316 µM
[10] = second compound 0.1 µM, first compound 1 µM
[11] = second compound 0.1 µM, first compound 3.16 µM
[12] = second compound 0.1 µM, first compound 10 µM
[13] = second compound 0.316 µM, first compound 0.0316 µM
[14] = second compound 0.316 µM, first compound 0.1 µM
[15] = second compound 0.316 µM, first compound 0.316 µM
[16] = second compound 0.316 µM, first compound 1 µM
[17] = second compound 0.316 µM, first compound 3.16 µM
[18] = second compound 0.316 µM, first compound 10 µM
[19] = second compound 1 µM, first compound 0.0316 µM
[20] = second compound 1 µM, first compound 0.1 µM
[21] = second compound 1 µM, first compound 0.316 µM
[22] = second compound 1 µM, first compound 1 µM
[23] = second compound 1 µM, first compound 3.16 µM
[24] = second compound 1 µM, first compound 10 µM
[25] = second compound 3.16 µM, first compound 0.0316 µM
[26] = second compound 3.16 µM, first compound 0.1 µM
[27] = second compound 3.16 µM, first compound 0.316 µM
[28] = second compound 3.16 µM, first compound 1 µM
[29] = second compound 3.16 µM, first compound 3.16 µM
[30] = second compound 3.16 µM, first compound 10 µM
[31] = second compound 10 µM, first compound 0.0316 µM
[32] = second compound 10 µM, first compound 0.1 µM
[33] = second compound 10 µM, first compound 0.316 µM
[34] = second compound 10 µM, first compound 1 µM
[35] = second compound 10 µM, first compound 3.16 µM
[36] = second compound 10 µM, first compound 10 µM
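Also: viability read after seven days of drug exposure.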
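For viability, T/C in this document: luminescence signal used as a proxy for viable cells; 100% = DMSO vehicle control wells.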

CC1COCCN1c1cc(C2(S(C)(=N)=O)CC2)nc(-c2ccnc3[nH]ccc23)n1 (centres undefined) + Cc1[nH]c2ccc(F)cc2c1-c1nc2c3cccnc3c3ncccc3c2[nH]1
652 nM: IC50 (second compound 0.1 µM)
active: viability, T/C [30] 9.24%
< 31.6 nM: IC50 (second compound 3.16 µM)
1180 nM: IC50 (second compound 0.0316 µM)
678 nM: IC50 (second compound 0.316 µM)
inactive: viability, T/C [1] 57.4% | viability, T/C [2] 83.1% | viability, T/C [3] 94.3% | viability, T/C [4] 54.7% | viability, T/C [5] 27.9% | viability, T/C [6] 15.1% | viability, T/C [7] 93.4% | viability, T/C [8] 72% | viability, T/C [9] 64.8% | viability, T/C [10] 43.1% | viability, T/C [11] 27.2% | viability, T/C [12] 15.7% | viability, T/C [13] 51.2% | viability, T/C [14] 101% | viability, T/C [15] 63.3% | viability, T/C [16] 40.4% | viability, T/C [17] 23.5% | viability, T/C [18] 12.2% | viability, T/C [19] 50.7% | viability, T/C [20] 77.8% | viability, T/C [21] 60.8% | viability, T/C [22] 33.2% | viability, T/C [23] 22.3% | viability, T/C [24] 12.8% | viability, T/C [25] 28.7% | viability, T/C [26] 49% | viability, T/C [27] 31% | viability, T/C [28] 23.1% | viability, T/C [29] 15.9% | viability, T/C [31] 46% | viability, T/C [32] 59.8% | viability, T/C [33] 56.5% | viability, T/C [34] 32.5% | viability, T/C [35] 18.6% | viability, T/C [36] 12.9%
501 nM: IC50 (second compound 1 µM)
394 nM: IC50 (second compound 10 µM)

COc1ccc([C@@H](O)c2cc(-c3ncnc4cc(N5CCOCC5)ccc34)c(F)cc2Cl)nn1 + Cc1[nH]c2ccc(F)cc2c1-c1nc2c3cccnc3c3ncccc3c2[nH]1
< 31.6 nM: IC50 (second compound 3.16 µM)
1080 nM: IC50 (second compound 1 µM)
858 nM: IC50 (second compound 10 µM)
586 nM: IC50 (second compound 0.1 µM)
682 nM: IC50 (second compound 0.316 µM)
670 nM: IC50 (second compound 0.0316 µM)
inactive: viability, T/C [1] 59.3% | viability, T/C [2] 79.9% | viability, T/C [3] 103% | viability, T/C [4] 26.9% | viability, T/C [5] 47.1% | viability, T/C [6] 26.8% | viability, T/C [7] 44.1% | viability, T/C [8] 105% | viability, T/C [9] 63.6% | viability, T/C [10] 31.3% | viability, T/C [11] 54.6% | viability, T/C [12] 28.8% | viability, T/C [13] 72.8% | viability, T/C [14] 105% | viability, T/C [15] 66% | viability, T/C [16] 47.4% | viability, T/C [17] 48.6% | viability, T/C [18] 30.1% | viability, T/C [19] 71% | viability, T/C [20] 63.6% | viability, T/C [21] 60.5% | viability, T/C [22] 53.6% | viability, T/C [23] 35% | viability, T/C [24] 24.8% | viability, T/C [25] 40% | viability, T/C [26] 38.4% | viability, T/C [27] 43.3% | viability, T/C [28] 33.5% | viability, T/C [29] 20.1% | viability, T/C [30] 16% | viability, T/C [31] 70.2% | viability, T/C [32] 62.5% | viability, T/C [33] 64.2% | viability, T/C [34] 44.8% | viability, T/C [35] 36.7% | viability, T/C [36] 22.3%
